Results published in ChEMBL document CHEMBL3808348, “Rational Design, Synthesis, and Biological Evaluation of 7-Azaindole Derivatives as Potent Focused Multi-Targeted Kinase Inhibitors” (J Med Chem, 2016).

Experiments:
HUVEC = test: Antiangiogenic activity in HUVEC after 72 hrs by MTT assay; format: functional, cell-based; conditions: Homo sapiens
[1] = biological target: Epidermal growth factor receptor (Homo sapiens, UniProt P00533); test: Inhibition of GST-tagged human recombinant EGFR (668 to1210 residues) expressed in baculovirus using Fluorescein-Poly GT as substrate at 100 nM
Sequence of Epidermal growth factor receptor (P00533 whole entry, the tested form may be a part): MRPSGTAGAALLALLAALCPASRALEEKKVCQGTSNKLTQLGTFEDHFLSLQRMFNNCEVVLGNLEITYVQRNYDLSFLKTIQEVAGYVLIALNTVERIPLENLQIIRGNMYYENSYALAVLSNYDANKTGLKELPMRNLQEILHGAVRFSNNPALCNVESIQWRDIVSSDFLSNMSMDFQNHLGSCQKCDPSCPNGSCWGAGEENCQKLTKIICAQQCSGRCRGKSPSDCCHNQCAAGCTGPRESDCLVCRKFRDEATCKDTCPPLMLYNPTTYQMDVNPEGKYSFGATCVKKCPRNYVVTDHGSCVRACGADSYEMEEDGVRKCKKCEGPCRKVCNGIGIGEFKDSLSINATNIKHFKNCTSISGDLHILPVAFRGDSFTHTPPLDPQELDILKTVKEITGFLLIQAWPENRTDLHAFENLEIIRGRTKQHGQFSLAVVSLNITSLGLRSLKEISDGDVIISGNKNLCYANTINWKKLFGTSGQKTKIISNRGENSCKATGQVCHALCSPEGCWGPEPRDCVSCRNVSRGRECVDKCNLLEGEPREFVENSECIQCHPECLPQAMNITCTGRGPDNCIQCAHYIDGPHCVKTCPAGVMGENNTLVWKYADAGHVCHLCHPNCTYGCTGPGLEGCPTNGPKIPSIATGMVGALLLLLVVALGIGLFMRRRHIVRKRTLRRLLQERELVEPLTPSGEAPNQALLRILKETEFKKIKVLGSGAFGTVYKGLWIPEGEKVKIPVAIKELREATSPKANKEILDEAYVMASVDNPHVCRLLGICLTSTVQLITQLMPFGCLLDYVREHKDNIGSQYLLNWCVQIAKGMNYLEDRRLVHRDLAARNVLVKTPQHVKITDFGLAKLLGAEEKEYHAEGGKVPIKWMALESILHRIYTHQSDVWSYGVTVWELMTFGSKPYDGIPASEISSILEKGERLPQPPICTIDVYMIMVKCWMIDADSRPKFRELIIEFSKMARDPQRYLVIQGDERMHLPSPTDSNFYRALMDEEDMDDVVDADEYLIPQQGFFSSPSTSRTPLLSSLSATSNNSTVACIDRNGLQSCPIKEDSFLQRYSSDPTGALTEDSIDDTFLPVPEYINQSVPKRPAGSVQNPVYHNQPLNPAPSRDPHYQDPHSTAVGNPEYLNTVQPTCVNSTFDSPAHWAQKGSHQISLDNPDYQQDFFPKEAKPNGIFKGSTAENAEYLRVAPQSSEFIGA

HepG2 = test: Antiproliferative activity against human HepG2 cells after 72 hrs by MTT assay; format: functional, cell-based; conditions: HepG2, 72 h
[2] = Antiangiogenic activity in HRMEC after 72 hrs by MTT assay; format: functional, Homo sapiens
[3] = biological target: Serine/threonine-protein kinase B-raf (Homo sapiens) (UniProt P15056); test: Inhibition of full length GST-tagged human recombinant BRAF expressed in baculovirus using Fluorescein-MAP2K1 as substrate at 100 nM
HT-29 = test: Antiproliferative activity against human HT-29 cells after 72 hrs by MTT assay; format: functional, cell-based; conditions: HT-29, 72 h
A549 = test: Antiproliferative activity against human A549 cells after 72 hrs by MTT assay; format: functional, cell-based; conditions: A549, 72 h
[4] = biological target: Platelet-derived growth factor receptor alpha (Homo sapiens, UniProt P16234); test: Inhibition of full length GST-tagged human recombinant PDGFRalpha expressed in baculovirus using Fluorescein-Poly GT as substrate at 100 nM
Sequence of Platelet-derived growth factor receptor alpha (P16234 whole entry, the tested form may be a part): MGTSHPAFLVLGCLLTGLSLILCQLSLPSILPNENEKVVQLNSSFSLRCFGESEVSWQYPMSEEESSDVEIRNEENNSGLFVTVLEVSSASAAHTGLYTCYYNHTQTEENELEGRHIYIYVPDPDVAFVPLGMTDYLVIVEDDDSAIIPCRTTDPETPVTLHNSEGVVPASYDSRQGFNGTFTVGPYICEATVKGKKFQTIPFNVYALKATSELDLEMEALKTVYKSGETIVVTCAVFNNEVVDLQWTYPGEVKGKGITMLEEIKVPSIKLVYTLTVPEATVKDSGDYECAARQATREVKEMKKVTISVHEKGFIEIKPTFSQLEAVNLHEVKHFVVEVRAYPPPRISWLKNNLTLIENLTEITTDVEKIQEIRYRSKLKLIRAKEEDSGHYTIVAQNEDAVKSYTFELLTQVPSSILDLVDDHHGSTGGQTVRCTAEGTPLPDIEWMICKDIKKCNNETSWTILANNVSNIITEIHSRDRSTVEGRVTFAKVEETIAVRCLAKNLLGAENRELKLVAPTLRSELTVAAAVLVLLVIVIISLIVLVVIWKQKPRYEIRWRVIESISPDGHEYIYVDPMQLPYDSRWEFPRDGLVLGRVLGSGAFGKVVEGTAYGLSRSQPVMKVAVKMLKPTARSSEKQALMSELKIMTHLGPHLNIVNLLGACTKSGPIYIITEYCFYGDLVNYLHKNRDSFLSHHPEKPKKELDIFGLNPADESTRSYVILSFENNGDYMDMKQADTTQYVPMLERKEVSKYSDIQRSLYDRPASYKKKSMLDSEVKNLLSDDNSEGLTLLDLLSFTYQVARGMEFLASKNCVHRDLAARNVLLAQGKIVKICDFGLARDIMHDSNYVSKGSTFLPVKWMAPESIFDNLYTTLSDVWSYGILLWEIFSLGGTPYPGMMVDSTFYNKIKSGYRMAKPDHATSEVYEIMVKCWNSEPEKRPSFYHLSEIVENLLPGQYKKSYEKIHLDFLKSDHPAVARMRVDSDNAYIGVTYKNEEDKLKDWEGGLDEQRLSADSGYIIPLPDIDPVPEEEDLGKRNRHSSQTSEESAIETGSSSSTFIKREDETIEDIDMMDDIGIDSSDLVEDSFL

[5] = biological target: Fibroblast growth factor receptor 2 (Homo sapiens) (UniProt P21802); test: Inhibition of His-tagged human recombinant FGFR2 (403 to 822 residues) expressed in baculovirus using Fluorescein-Poly GT as substrate at 100 nM
Sequence of Fibroblast growth factor receptor 2 (Homo sapiens) (P21802 22-821 limits assumed): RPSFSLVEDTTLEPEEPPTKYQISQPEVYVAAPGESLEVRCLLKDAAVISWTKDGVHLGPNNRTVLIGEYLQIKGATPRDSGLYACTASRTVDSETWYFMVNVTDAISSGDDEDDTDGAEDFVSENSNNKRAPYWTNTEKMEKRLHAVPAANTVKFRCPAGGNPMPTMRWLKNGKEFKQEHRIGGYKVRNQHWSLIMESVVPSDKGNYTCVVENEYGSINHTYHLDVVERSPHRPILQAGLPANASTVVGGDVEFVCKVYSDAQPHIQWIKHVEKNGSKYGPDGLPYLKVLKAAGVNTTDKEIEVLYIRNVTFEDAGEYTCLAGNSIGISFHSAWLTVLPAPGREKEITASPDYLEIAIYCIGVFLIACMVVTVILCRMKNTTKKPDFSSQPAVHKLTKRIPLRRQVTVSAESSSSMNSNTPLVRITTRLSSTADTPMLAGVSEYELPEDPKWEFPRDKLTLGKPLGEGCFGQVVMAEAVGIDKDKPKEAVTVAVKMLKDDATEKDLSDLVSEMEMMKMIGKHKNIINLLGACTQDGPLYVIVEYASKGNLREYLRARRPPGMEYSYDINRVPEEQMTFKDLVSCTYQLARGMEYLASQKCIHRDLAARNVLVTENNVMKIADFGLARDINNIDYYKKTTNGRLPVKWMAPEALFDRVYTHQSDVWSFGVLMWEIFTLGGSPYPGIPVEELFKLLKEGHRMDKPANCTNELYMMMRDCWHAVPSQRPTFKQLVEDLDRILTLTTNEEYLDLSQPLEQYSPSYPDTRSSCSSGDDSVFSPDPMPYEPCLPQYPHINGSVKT

[6] = biological target: Proto-oncogene tyrosine-protein kinase Src (Homo sapiens, UniProt P12931); test: Inhibition of full length His-tagged human recombinant cSRC expressed in baculovirus using Fluorescein-Poly GT as substrate at 100 nM
Sequence of Proto-oncogene tyrosine-protein kinase Src (P12931 2-536 limits assumed): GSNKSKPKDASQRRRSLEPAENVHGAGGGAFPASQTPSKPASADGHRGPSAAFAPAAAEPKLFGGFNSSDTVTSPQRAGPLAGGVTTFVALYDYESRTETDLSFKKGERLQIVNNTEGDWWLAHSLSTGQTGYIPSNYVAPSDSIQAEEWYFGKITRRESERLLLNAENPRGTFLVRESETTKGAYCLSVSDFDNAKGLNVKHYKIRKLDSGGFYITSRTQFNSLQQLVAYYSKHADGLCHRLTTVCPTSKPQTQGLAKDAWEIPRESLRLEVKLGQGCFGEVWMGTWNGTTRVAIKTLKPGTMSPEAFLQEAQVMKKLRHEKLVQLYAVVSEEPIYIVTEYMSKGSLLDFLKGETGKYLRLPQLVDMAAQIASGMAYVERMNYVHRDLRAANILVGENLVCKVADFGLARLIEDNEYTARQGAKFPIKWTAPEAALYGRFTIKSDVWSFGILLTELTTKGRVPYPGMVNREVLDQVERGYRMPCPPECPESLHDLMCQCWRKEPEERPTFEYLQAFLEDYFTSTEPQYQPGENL

[7] = biological target: Vascular endothelial growth factor receptor 2 (Homo sapiens) (UniProt P35968); test: Inhibition of full length His-tagged human recombinant VEGFR2 expressed in baculovirus using Fluorescein-Poly GT as substrate at 100 nM
Sequence of Vascular endothelial growth factor receptor 2 (Homo sapiens) (P35968 whole entry): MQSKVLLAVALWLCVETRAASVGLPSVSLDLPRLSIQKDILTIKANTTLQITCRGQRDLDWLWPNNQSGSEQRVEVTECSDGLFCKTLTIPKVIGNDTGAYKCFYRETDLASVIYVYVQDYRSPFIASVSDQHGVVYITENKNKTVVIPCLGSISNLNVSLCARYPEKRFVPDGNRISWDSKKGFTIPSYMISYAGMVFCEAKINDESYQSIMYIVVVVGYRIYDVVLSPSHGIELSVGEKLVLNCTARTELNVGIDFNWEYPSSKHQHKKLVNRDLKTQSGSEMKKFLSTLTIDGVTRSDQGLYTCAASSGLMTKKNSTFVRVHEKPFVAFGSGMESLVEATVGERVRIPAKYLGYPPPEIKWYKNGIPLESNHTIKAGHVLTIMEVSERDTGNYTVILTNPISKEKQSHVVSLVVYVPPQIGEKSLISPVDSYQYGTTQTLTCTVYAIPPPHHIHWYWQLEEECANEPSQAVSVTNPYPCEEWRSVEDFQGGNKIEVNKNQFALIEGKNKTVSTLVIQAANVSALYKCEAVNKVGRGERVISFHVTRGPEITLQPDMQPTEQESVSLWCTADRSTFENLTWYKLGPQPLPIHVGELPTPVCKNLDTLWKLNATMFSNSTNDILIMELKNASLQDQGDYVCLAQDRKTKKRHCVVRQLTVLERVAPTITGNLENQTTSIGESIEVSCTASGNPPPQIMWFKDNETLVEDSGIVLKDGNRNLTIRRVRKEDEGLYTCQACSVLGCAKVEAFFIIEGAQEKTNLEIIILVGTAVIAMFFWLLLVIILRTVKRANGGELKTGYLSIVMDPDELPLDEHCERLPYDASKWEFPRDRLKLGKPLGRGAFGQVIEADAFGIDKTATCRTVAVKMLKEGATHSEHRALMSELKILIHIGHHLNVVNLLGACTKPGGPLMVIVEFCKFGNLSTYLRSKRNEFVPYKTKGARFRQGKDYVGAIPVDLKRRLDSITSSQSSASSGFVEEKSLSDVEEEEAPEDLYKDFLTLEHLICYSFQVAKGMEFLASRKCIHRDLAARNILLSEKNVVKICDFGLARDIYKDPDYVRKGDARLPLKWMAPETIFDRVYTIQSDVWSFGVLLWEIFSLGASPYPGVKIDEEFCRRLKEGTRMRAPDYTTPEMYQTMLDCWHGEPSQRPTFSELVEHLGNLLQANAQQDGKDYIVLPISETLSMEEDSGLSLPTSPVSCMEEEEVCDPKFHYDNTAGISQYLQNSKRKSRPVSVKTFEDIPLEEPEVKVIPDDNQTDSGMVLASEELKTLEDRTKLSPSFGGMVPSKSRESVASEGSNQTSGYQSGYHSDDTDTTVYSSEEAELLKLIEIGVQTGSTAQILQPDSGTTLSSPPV

MDA-MB-231 = test: Antiproliferative activity against human MDA-MB-231 cells after 72 hrs by MTT assay; format: functional, cell-based; conditions: MDA-MB-231, 72 h
NCI-H1975 = test: Antiproliferative activity against human NCI-H1975 cells harboring EGFR L858R/T790M double mutant after 72 hrs by MTT assay; format: functional, cell-based; conditions: NCI-H1975, 72 h
[8] = Antiproliferative activity against human BxPC3 cells after 72 hrs by MTT assay; format: functional, cell-based; conditions: BXPC-3, 72 h
PBMC = test: Hematotoxicity in human PHA/IL2-stimulated PBMC; format: cell-based
[9] = Antiproliferative activity against human Caki2 cells after 72 hrs by MTT assay; format: functional, cell-based; conditions: CAKI-2, 72 h
[10] = Antiproliferative activity against human PC3 cells after 72 hrs by MTT assay; format: functional, cell-based; conditions: PC-3, 72 h

SMILES	EC50 (HUVEC) [nM]	inhibition [1] [%]	EC50 (HepG2) [nM]	EC50 [2] [nM]	inhibition [3] [%]	EC50 (HT-29) [nM]	EC50 (A549) [nM]	inhibition [4] [%]	inhibition [5] [%]	inhibition [6] [%]	inhibition [7] [%]	EC50 (MDA-MB-231) [nM]	EC50 (NCI-H1975) [nM]	EC50 [8] [nM]	EC50 (PBMC) [nM]	EC50 [9] [nM]	EC50 [10] [nM]
CC(=O)c1cc2cc(NCc3cc(NC(=O)c4ccc(CN5CCC(N(C)C)C5)c(C(F)(F)F)c4)ccc3C)cnc2[nH]1 (centres undefined)	97	94	275	179	56	150	204	73	58	91	71	–	–	–	–	–	–
CN(C)C/C=C/C(=O)Nc1cc2c(Nc3ccc(F)c(Cl)c3)ncnc2cc1O[C@H]1CCOC1 [AFATINIB]	–	–	–	–	–	–	–	–	–	–	–	> 1000	116	> 1000	–	–	–
CC(=O)c1cc2cc(CCc3cc(NC(=O)c4ccc(CN5CCC(N(C)C)C5)c(C(F)(F)F)c4)ccc3C)cnc2[nH]1 (centres undefined)	163	83	248	304	60	303	293	89	81	97	99	–	–	–	–	–	–
Cc1nc(Nc2ncc(C(=O)Nc3c(C)cccc3Cl)s2)cc(N2CCN(CCO)CC2)n1 [DASATINIB]	–	–	–	–	–	–	–	–	–	–	–	44	173	33	1600	55	232
COC(=O)c1cc2cc(NC(=O)c3cc(NC(=O)c4ccc(CN5CCN(C)CC5)cc4)ccc3C)cnc2[nH]1	> 1000	65	> 1000	–	71	–	–	41	8	94	97	–	–	–	–	–	–
COC(=O)c1cc2cc(NCc3cc(NC(=O)c4ccc5[nH]ccc5c4)ccc3C)cnc2[nH]1	199	45	> 1000	–	65	–	–	87	-4	59	59	–	–	–	–	–	–
COC(=O)c1cc2cc(NCc3cc(NC(=O)c4ccc(CN5CCC(N(C)C)C5)c(C(F)(F)F)c4)ccc3C)cnc2[nH]1 (centres undefined)	689	80	673	–	92	–	–	90	75	96	96	–	–	–	–	–	–
CCN(CC)CCNC(=O)c1c(C)[nH]c(/C=C2\C(=O)Nc3ccc(F)cc32)c1C [SUNITINIB]	–	–	–	–	–	–	–	–	–	–	–	> 1000	> 1000	> 1000	–	> 1000	> 1000
CNC(=O)c1cc2cc(NCc3cc(NC(=O)c4ccc(CN5CCN(C)CC5)cc4)ccc3C)cnc2[nH]1	> 1000	99	> 1000	–	86	–	–	95	23	98	93	–	–	–	–	–	–
C#Cc1cccc(Nc2ncnc3cc(OCCOC)c(OCCOC)cc23)c1 [ERLOTINIB]	–	–	–	> 1000	–	> 1000	> 1000	–	–	–	–	> 1000	> 1000	> 1000	–	> 1000	> 1000
CNC(=O)c1cc2cc(NCc3cc(NC(=O)c4ccc(CN5CCC(N(C)C)C5)c(C(F)(F)F)c4)ccc3C)cnc2[nH]1 (centres undefined)	83	101	179	81	93	227	495	94	98	99	87	–	–	–	–	–	–
CNC(=O)c1cc(Oc2ccc(NC(=O)Nc3ccc(Cl)c(C(F)(F)F)c3)cc2)ccn1 [SORAFENIB]	718	–	302	> 1000	–	> 1000	> 1000	–	–	–	–	> 1000	> 1000	> 1000	–	> 1000	–
COC(=O)c1cc2cc(NC(=O)c3cc(NC(=O)c4ccc(CN5CCC(N(C)C)C5)c(C(F)(F)F)c4)ccc3C)cnc2[nH]1 (centres undefined)	631	76	977	–	46	–	–	94	94	100	93	–	–	–	–	–	–
COC(=O)c1cc2cc(NCc3cc(NC(=O)c4cncc(C)c4)ccc3C)cnc2[nH]1	> 1000	72	510	–	95	–	–	93	19	89	89	–	–	–	–	–	–
CNC(=O)c1cc(Oc2ccc(NC(=O)Nc3ccc(Cl)c(C(F)(F)F)c3)c(F)c2)ccn1 [REGORAFENIB]	–	–	–	–	–	> 1000	> 1000	–	–	–	–	–	–	–	–	–	–
